Assay results from patent US20250049809A1, “INHIBITORS OF MUTANT IDH1 AND IDH2” (Board of Regents, The University of Texas System, priority 2023, published 2025).
pIC50: −log10 of the molar value.

What was measured:
[1] = molecular target: mIDH1R132H/S280F (Homo sapiens (Human), UniProt O75874, R132H/S280F); assay: mIDH1 R132H/S280F enzymatic activity assay (NADPH fluorescence); assay type: biochemical; settings: enzyme assay, 1 hour preincubation; read-out: IDH1R132H/S280F IC50
Protocol: The enzymatic activity of mIDH1R132H/S280F was assessed by measuring the fluorescence of the NADPH. The assay was performed in 384 well, white ProxiPlates (PerkinElmer, 6008280) in assay buffer containing 50 mM Hepes (Life Technologies, 15630080), 50 mM KCl (Teknova, P0327), 10 mM MgCl2 (Sigma-Aldrich, M1028), 1 mM DTT (Sigma-Aldrich, 43815), 0.02% BSA (Sigma-Aldrich, A3059) at pH 7.5. The final reaction volume was 10 μL. Stock solutions of the test compounds were prepared in 100% DMSO (Sigma, D2650) and serially diluted 1:3 using 100% DMSO. 50 nL of compound were then transferred to the assay plate using the Beckman Coulter ECHO 650 Acoustic Liquid Handler for a final DMSO concentration of 0.5%. 5 μL of a mIDH1R132H/S280F and NADPH (Santa Cruz, SC202725C) mixture were added to the assay plate for a final concentration of 2 nM and […], respectively. 5 μL of NADPH alone were added to negative control wells followed by a 1 hour preincubation at room temperature. 5 μL of alphaketoglutarate (Sigma-Aldrich, K1128) were added to the assay plate for a final concentration of 120 μM. Fluorescence of NADPH (excitation: 350 nm, emission 450 nm) was immediately measured kinetically for approximately 90 minutes using the BioTek Synergy Neo plate reader.

[2] = molecular target: mIDH1R132H (Homo sapiens (Human), UniProt O75874, R132H); assay: mIDH1 R132H enzymatic activity assay (NADPH fluorescence); assay type: biochemical; settings: enzyme assay; read-out: IDH1R132H IC50
Sequence of mIDH1R132H (O75874 whole entry R132H): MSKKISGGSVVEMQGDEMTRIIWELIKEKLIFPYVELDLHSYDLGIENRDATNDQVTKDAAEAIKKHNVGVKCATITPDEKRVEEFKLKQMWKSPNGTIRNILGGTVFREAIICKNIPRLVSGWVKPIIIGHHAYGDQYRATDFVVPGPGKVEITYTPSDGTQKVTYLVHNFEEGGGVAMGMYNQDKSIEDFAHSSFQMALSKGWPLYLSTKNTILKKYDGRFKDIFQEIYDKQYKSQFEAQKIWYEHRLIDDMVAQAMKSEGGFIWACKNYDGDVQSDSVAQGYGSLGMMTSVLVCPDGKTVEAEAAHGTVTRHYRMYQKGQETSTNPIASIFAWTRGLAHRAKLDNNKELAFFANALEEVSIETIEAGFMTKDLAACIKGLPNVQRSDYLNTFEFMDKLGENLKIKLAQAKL
Protocol: The enzymatic activity of mIDH1R132H was assessed by measuring the fluorescence of the NADPH. The assay was performed in 384 well, white ProxiPlates (PerkinElmer, 6008280) in assay buffer containing 50 mM Hepes (Life Technologies, 15630080), 50 mM KCl (Teknova, P0327), 10 mM MgCl2 (Sigma-Aldrich, M1028), 1 mM DTT (Sigma-Aldrich, 43815), 0.02% BSA (Sigma-Aldrich, A3059) at pH 7.5. The final reaction volume was 10 μL. Stock solutions of the test compounds were prepared in 100% DMSO (Sigma, D2650) and serially diluted 1:3 using 100% DMSO. 50 nL of compound were then transferred to the assay plate using the Beckman Coulter ECHO 650 Acoustic Liquid Handler for a final DMSO concentration of 0.5%. […] a mIDH1R132H and NADPH (Santa Cruz, SC202725C) mixture were added to the assay plate for a final concentration of 10 nM and 20 μM, respectively. 5 μL of NADPH alone were added to negative control wells. 5 μL of alphaketoglutarate (Sigma-Aldrich, K1128) were added to the assay plate for a final concentration of 200 μM. Fluorescence of NADPH (excitation: 350 nm, emission 450 nm) was immediately measured kinetically for approximately 60 minutes using the BioTek Synergy Neo plate reader.

[3] = molecular target: WT IDH2 (Homo sapiens (Human), UniProt P48735); assay: WT IDH2 enzymatic activity assay (NADPH fluorescence); assay type: biochemical; settings: enzyme assay
Sequence of WT IDH2 (P48735 40-452): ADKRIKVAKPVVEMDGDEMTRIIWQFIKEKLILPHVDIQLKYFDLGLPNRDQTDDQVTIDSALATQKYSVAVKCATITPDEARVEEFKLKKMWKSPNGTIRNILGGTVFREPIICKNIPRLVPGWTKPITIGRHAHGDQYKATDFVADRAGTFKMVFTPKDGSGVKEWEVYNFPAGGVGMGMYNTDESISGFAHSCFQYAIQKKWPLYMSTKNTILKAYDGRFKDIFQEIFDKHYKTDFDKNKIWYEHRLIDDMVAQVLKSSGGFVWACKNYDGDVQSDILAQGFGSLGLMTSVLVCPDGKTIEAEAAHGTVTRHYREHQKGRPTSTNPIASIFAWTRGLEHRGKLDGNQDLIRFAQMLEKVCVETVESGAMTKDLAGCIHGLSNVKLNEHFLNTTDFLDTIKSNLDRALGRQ
Protocol: The enzymatic activity of WT IDH2 was assessed by measuring the fluorescence of the NADPH generated in the enzymatic reaction. The assay was performed in 384 well, white ProxiPlates (PerkinElmer, 6008280) in assay buffer containing 50 mM Hepes (Life Technologies, 15630080), 50 mM KCl (Teknova, P0327), 10 mM MgCl2 (Sigma-Aldrich, M1028), 1 mM DTT (Sigma-Aldrich, 43815), 0.02% BSA (Sigma-Aldrich, A3059) at pH 7.5. The final reaction volume was 10 μL. Stock solutions of the test compounds were prepared in 100% DMSO (Sigma, D2650) and serially diluted 1:3 using 100% DMSO. 50 nL of compound were then transferred to the assay plate using the Beckman Coulter ECHO 650 Acoustic Liquid Handler for a final DMSO concentration of 0.5%. 5 μL of WT IDH2 were added to the assay plate for a final concentration of 0.5 nM. 5 μL of assay buffer alone were added to negative control wells. 5 μL of an isocitrate (Sigma-Aldrich, 58790) and NADP (Sigma-Aldrich, N5755) mixture were added to the assay plate for a final concentration of 5 μM and 15 μM, respectively. Fluorescence of NADPH (excitation: 350 nm, emission 450 nm) was immediately measured kinetically for approximately 15 minutes using the BioTek Synergy Neo plate reader.

[4] = molecular target: TF1 IDH2R140Q (Homo sapiens (Human), UniProt P48735, R140Q); assay: TF1 IDH2 R140Q 2-HG cellular assay; assay type: cell-based; settings: extracellular 2HG, 24 hr treatment, IDH2 mutant-TF1 isogenic cell line
Sequence of TF1 IDH2R140Q (P48735 40-452 R140Q): as the sequence (P48735 40-452) above, with R101Q counted along it
Protocol: The IDH2 mutant-TF1 isogenic cell line (ATCC CRL-20031G) used to test cellular inhibition is an erythroblast cell line that was isolated from the marrow of a patient with erythroleukemia with the IDH2R140Q mutation. These cells are maintained in RPMI-1640 (ATCC 30-2001) culture media with 10% FBS, 10 U/mL Penicillin-Streptomycin, and 2 ng/mL GM-CSF. Thirty thousand cells are plated in polystyrene tissue culture treated 384 well cell culture plates (PerkinElmer 6007680) (30,000 cells/well) approximately 2 hours before compound treatment. Cells are then treated with different concentrations of test compounds (5 μM to 0.3 pM) for 24 hr. Extracellular 2HG levels are measured from cell culture media. For analyte extraction, 30 μL of culture media is transferred to 120 μL 100% acetonitrile in a deep 384 well plate and mixed well, followed by 5 min centrifugation at 3700 rpm at room temperature. 100 μL of supernatant is transferred to a flat bottom 384 well plate. Samples are run on the Agilent RapidFire-Mass Spectrometry instrument to detect 2HG levels. The samples from each well were aspirated for 600 ms and loaded onto a HILIC solid-phase extraction cartridge (Agilent) followed by a wash step for 3000 ms with 90% acetonitrile containing 5 mM ammonium acetate. Analytes were then eluted off the cartridge into the Agilent 6460 Triple Quad mass spectrometer with a 4500 ms elution step using 30% acetonitrile containing 5 mM ammonium acetate. The HILIC cartridge was then re-equilibrated by 90% acetonitrile containing 5 mM ammonium acetate for 500 ms. The 2HG was detected by an Agilent 6460 Triple Quad mass spectrometer in negative ion mode. Multiple reaction monitoring was used to quantify 2HG using the precursor ion and product ion at m/z 147.03 and 128.9, respectively. The percent activity of each sample is calculated by using DMSO and control compound treated references, and IC50 values are obtained using the GeneData Screener data analysis program.

Sequence of mIDH1R132H/S280F (O75874 whole entry R132H/S280F): as the sequence (O75874 whole entry R132H) above, with S280F counted along it

Row | pIC50 [1] | pIC50 [2] | pIC50 [3] | pIC50 [4] | SMILES
1 | 6.59 | 8.48 | 4.79 | 6.56 | C=CC(=O)N1CCN(C2CCCC/C=C/CN3C(=O)OCc4cnc(nc43)N[C@@H](C)c3ccc2cc3)CC1 (stereo partly drawn) [Example 3, (3S,E)-5-(4-acryloylpiperazin-1-yl)-3-methyl-1^1,1^4-dihydro-1^2H-2-aza-1(7,1)-pyrimido[4,5-d][1,3]oxazina-4(1,4)-benzenacyclododecaphan-10-en-1^2-one]
2 | 6.53 | 8.40 | 4.38 | 6.55 | C=CC(=O)N1CCN(C2CCCCCCCN3C(=O)OCc4cnc(nc43)N[C@@H](C)c3ccc2cc3)CC1 (stereo partly drawn) [Example 4, (3S)-5-(4-acryloylpiperazin-1-yl)-3-methyl-1^1,1^4-dihydro-1^2H-2-aza-1(7,1)-pyrimido[4,5-d][1,3]oxazina-4(1,4)-benzenacyclododecaphan-1^2-one]
